# In patent US20230407243A1, “GENETIC PLATFORM TO INVESTIGATE THE FUNCTIONS OF BACTERIAL DRUG EFFLUX PUMPS” (priority 2022, published 2023):
# What was measured:
# Type in all cases: cell-based, Escherichia coli
# ΔtolC-Pore = assay: microbe, parasite or virus in culture; conditions: technical duplicate
# In short: (§1)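 E. coli strains carrying a genomically integrated constitutive fhuA ΔC/Δ4L pore were grown 18 h in LB at 37 °C, then diluted 1/2000 in MHB II from OD600 ~1.0. Compounds were tested in duplicate, 2-fold serial titration, for 18 h at 37 °C with shaking. MIC came from OD600 with the pre-incubation background subtracted.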
# wild-type (WT) K-12-Pore = assay: microbe, parasite or virus in culture; conditions: technical duplicate
# In short: as §1
# EKO-35-Pore = assay: MIC susceptibility profiling, porinated strain
# In short: as §1
# EKO-35 araC::acrD Pore = assay: MIC susceptibility profiling, porinated efflux platform
# In short: as §1
# EKO-35 araC::emrAB Pore = assay: as above
# In short: as §1
# [1] = system: EKO-35 araC::acrBD408A Pore; assay: as above
# In short: as §1
# EKO-35 araC::acrEF Pore = assay: as above
# In short: as §1
# EKO-35 araC::acrB Pore = assay: as above
# In short: as §1
# EKO-35 araC::acrD = assay: MIC susceptibility profiling, efflux platform
# In short: (§2)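 Turbidity (OD600, pre-incubation subtracted) defined growth after 18 h at 37 °C in MHB II. The inoculum was diluted 1/2000 from an OD600 ~1.0 PBS suspension of an overnight LB culture. Compounds were run as duplicate twofold dilutions.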
# EKO-35 araC::acrEF = assay: MIC susceptibility profiling, efflux platform
# In short: as §2
# [2] = system: EKO-35 araC::mexCD (MexCD from P. aeruginosa); assay: MIC susceptibility profiling, efflux platform
# In short: as §2
# EKO-35 araC::mdtBC = assay: MIC susceptibility profiling, efflux platform
# In short: as §2
# EKO-35 araC::acrB = assay: MIC susceptibility profiling, efflux platform
# In short: as §2
# EKO-35 araC::macAB = assay: MIC susceptibility profiling, efflux platform
# In short: as §2
# EKO-35 araC::mdtEF = assay: MIC susceptibility profiling, efflux platform
# In short: as §2
# EKO-35 araC::emrKY = assay: MIC susceptibility profiling, efflux platform
# In short: as §2
# EKO-35 araC::emrAB = assay: MIC susceptibility profiling, efflux platform
# In short: as §2
# EKO-35 araC::acrBD408A = assay: MIC susceptibility profiling, efflux platform
# In short: as §2
# [3] = Table 14A, porinated, technical duplicate
# [4] = Table 13A, non-porinated, technical duplicate
# [5] = Table 13B, non-porinated, technical duplicate
substance,measurement,setting,value
benzalkonium chloride,"Minimum inhibitory concentration (MIC), Pore ΔtolC","ΔtolC-Pore; Table 10, with pore",0.391 µg/mL
same,"Minimum inhibitory concentration, ΔtolC-Pore","ΔtolC-Pore; Table 14A, porinated",0.391 µg/mL
same,"Minimum inhibitory concentration (MIC), Pore K-12","wild-type (WT) K-12-Pore; Table 10, with pore",6.25 µg/mL
same,"Minimum inhibitory concentration, K-12 (WT)-Pore","wild-type (WT) K-12-Pore; Table 14A, porinated",6.25 µg/mL
same,Fold changes of MICs,EKO-35-Pore; EKO-35-Pore compared to EKO-35-Pore (reference),1 fold
same,"Minimum inhibitory concentration (MIC), Pore EKO-35","EKO-35-Pore; Table 10, with pore, technical duplicate",0.391 µg/mL
same,"Minimum inhibitory concentration, EKO-35-Pore",EKO-35-Pore; [3],0.391 µg/mL
same,Fold changes of MICs,EKO-35 araC::acrD Pore; EKO-35 araC::acrD Pore compared to EKO-35-Pore,1 fold
same,"Minimum inhibitory concentration, EKO-35 araC::acrD Pore",EKO-35 araC::acrD Pore; [3],0.391 µg/mL
same,Fold changes of MICs,EKO-35 araC::emrAB Pore; EKO-35 araC::emrAB Pore compared to EKO-35-Pore,1 fold
same,Minimum inhibitory concentration,"EKO-35 araC::emrAB Pore; EKO-35 araC::emrAB Pore, technical duplicate",0.391 µg/mL
same,Fold changes of MICs,[1]; EKO-35 araC::acrBD408A Pore compared to EKO-35-Pore,1 fold
same,Minimum inhibitory concentration,"[1]; EKO-35 araC::acrBD408A Pore, technical duplicate",0.391 µg/mL
same,efflux pump-mediated resistance vs EKO-35-Pore,EKO-35 araC::acrEF Pore; AcrEF with the pore,impacted the ability of AcrEF to confer resistance
same,Fold changes of MICs,EKO-35 araC::acrEF Pore; EKO-35 araC::acrEF Pore compared to EKO-35-Pore,2 fold
same,"Minimum inhibitory concentration, EKO-35 araC::acrEF Pore",EKO-35 araC::acrEF Pore; [3],0.781 µg/mL
same,Fold changes of MICs,EKO-35 araC::acrB Pore; EKO-35 araC::acr-B Pore compared to EKO-35-Pore,8 fold
same,"Minimum inhibitory concentration, EKO-35 araC::acrB Pore",EKO-35 araC::acrB Pore; [3],3.125 µg/mL
same,Fold change of MICs,EKO-35 araC::acrD; EKO-35 araC::acrD compared to EKO-35,1 fold
same,"Minimum Inhibitory Concentration, EKO-35 araC::acrD",EKO-35 araC::acrD; [4],0.391 µg/mL
same,Fold change of MICs,EKO-35 araC::acrEF; EKO-35 araC::acrEF compared to EKO-35,4 fold
same,"Minimum Inhibitory Concentration, EKO-35 araC::acrEF",EKO-35 araC::acrEF; [4],1.563 µg/mL
same,Fold change of MICs,[2]; EKO-35 araC::mexCD compared to EKO-35,2 fold
same,"Minimum Inhibitory Concentration, EKO-35 araC::mexCD",[2]; [5],0.781 µg/mL
same,Fold change of MICs,EKO-35 araC::mdtBC; EKO-35 araC::mdtBC compared to EKO-35,1 fold
same,"Minimum Inhibitory Concentration, EKO-35 araC::mdtBC",EKO-35 araC::mdtBC; [5],0.391 µg/mL
same,Fold change of MICs,EKO-35 araC::acrB; EKO-35 araC::acrB compared to EKO-35,32 fold
same,"Minimum Inhibitory Concentration, EKO-35 araC::acrB",EKO-35 araC::acrB; [4],12.5 µg/mL
same,Fold change of MICs,EKO-35 araC::macAB; EKO-35 araC::macAB compared to EKO-35,1 fold
same,"Minimum Inhibitory Concentration, EKO-35 araC::macAB",EKO-35 araC::macAB; [5],0.391 µg/mL
same,Fold change of MICs,EKO-35 araC::mdtEF; EKO-35 araC::mdtEF compared to EKO-35,4 fold
same,"Minimum Inhibitory Concentration, EKO-35 araC::mdtEF",EKO-35 araC::mdtEF; [4],1.563 µg/mL
same,Fold change of MICs,EKO-35 araC::emrKY; EKO-35 araC::emrKY compared to EKO-35,1 fold
same,"Minimum Inhibitory Concentration, EKO-35 araC::emrKY",EKO-35 araC::emrKY; [5],0.391 µg/mL
same,Fold change of MICs,EKO-35 araC::emrAB; EKO-35 araC::emrAB compared to EKO-35,1 fold
same,"Minimum Inhibitory Concentration, EKO-35 araC::emrAB",EKO-35 araC::emrAB; [5],0.391 µg/mL
same,Fold change of MICs,EKO-35 araC::acrBD408A; EKO-35 araC::acrBD408A compared to EKO-35,1 fold
same,"Minimum Inhibitory Concentration, EKO-35 araC::acrBD408A",EKO-35 araC::acrBD408A; [5],0.391 µg/mL
